Assay results reported in US20260085062A1, “NOVEL COMPOUNDS AS CK2 INHIBITORS” (Cambridge Enterprise Limited, priority 2022, published 2026).

What was measured:
intracellular CK2α = biological target: T1, intracellular CK2α (Homo sapiens, UniProt P19784); assay: Cell-based NanoBRET assay for inhibitor binding to intracellular CK2α; settings: HCT116 cells transiently transfected with CSNK2A2-NanoLuc fusion vector; Tracer K-5; 2 h; read-out: Assay 3: NanoBRET ™ assay for binding to intracellular CK2α
T1 construct: host or cells: HCT116 (ATCC CCL-247)
Outline: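 Living cells expressing NanoLuc-CK2α fusion were given a fixed tracer concentration, and compounds competitively displaced the reversibly bound tracer. Donor (450 nm) and acceptor (610 or 630 nm) emissions were read; BRET ratio = (acceptor/donor)×1,000, giving apparent intracellular affinity.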

CLK2 = biological target: T2, CLK2 (Homo sapiens, UniProt P49760); assay: Biochemical assay for inhibitors of CLK2 kinase activity (ADP-Glo); settings: 20 nM CLK2, 50 μM peptide substrate, 100 μM ATP, read-out: Assay 2: CLK2 Enzyme IC50
T2 construct: purchased Carna Biosciences 04-127

CK2α = biological target: T3, CK2α (Homo sapiens, UniProt P68400); assay: Biochemical assay for inhibitors of CK2α kinase activity (ADP-Glo); settings: 0.2 nM CK2α, 50 μM peptide substrate, 15 μM ATP, read-out: Assay 1: CK2α Enzyme IC50
T3 construct: CK2α (residues 2-329) was produced in Escherichia coli BL21 (DE3) for kinase activity screening; His6 (N, cleaved yes); made in house; host or cells: Escherichia coli BL21 (DE3)
T3 sequence (P68400 2-329): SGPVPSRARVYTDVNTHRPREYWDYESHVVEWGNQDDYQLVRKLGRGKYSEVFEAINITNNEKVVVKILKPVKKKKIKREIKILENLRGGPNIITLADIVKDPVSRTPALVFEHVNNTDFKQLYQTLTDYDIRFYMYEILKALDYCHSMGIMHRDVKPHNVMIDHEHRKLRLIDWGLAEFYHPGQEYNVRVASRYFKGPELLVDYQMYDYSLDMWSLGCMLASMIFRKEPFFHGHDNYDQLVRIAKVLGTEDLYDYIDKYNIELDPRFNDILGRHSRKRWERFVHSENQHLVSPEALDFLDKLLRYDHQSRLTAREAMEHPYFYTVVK

T2 sequence (P49760 whole entry): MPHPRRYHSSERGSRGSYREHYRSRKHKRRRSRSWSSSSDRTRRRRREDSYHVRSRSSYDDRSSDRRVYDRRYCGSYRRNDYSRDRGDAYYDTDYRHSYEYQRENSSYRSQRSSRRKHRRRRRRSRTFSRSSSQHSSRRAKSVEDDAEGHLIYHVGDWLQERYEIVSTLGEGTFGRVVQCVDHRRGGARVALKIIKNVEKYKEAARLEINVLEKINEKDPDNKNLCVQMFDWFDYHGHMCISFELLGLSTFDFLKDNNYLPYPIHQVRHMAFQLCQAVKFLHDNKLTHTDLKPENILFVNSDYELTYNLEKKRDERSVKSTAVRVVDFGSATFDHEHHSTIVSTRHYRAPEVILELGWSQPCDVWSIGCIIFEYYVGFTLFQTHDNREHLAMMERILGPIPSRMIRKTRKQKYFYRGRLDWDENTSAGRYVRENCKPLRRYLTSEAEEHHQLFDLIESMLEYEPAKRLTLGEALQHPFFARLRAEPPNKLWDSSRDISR
T1 sequence (P19784 whole entry, the tested form may be a part): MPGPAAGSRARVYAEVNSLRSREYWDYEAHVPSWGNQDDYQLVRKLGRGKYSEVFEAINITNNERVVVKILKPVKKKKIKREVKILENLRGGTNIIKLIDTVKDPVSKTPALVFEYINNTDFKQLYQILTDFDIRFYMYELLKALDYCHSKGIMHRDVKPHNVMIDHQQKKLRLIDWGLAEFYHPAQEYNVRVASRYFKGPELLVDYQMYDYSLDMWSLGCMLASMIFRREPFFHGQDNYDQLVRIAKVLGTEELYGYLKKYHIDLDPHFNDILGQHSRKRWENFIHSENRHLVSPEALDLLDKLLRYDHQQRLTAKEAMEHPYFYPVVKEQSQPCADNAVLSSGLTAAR

SMILES | IC50 (intracellular CK2α) [nM] | IC50 (CLK2) [nM] | IC50 (CK2α) [nM]
O=C(CCNCc1ccc(OC(F)(F)F)c(Cl)c1)NCCCNc1cc(-c2cnco2)cc2[nH]ncc12 [Example 164, 3-((3-chloro-4-(trifluoromethoxy)benzyl)amino)-N-(3-((6-(oxazol-5-yl)-1H-indazol-4-yl)amino)propyl)propanamide] | 134 | 242 | 2.98
Cc1cnccc1-c1cc(NCCCNC(=O)CCNCc2ccc(OC(F)(F)F)c(Cl)c2)c2cn[nH]c2c1 [Example 165, 3-((3-chloro-4-(trifluoromethoxy)benzyl)amino)-N-(3-((6-(3-methylpyridin-4-yl)-1H-indazol-4-yl)amino)propyl)propanamide] | 3740 | 7320 | 72.9
Fc1cc(CNCCCCOCCNc2cc(-c3ccncc3)c(Cl)c3[nH]ncc23)cc(F)c1OC(F)(F)F [Example 166, 7-chloro-N-(2-(4-((3,5-difluoro-4-(trifluoromethoxy)benzyl)amino)butoxy)ethyl)-6-(pyridin-4-yl)-1H-indazol-4-amine] | 2670 | 783 | 21.3
N#Cc1cc(NCCOCCCCNCc2cc(F)c(OC(F)(F)F)c(F)c2)c2cn[nH]c2c1 [Example 167, 4-((2-(4-((3,5-difluoro-4-(trifluoromethoxy)benzyl)amino)butoxy)ethyl)amino)-1H-indazole-6-carbonitrile] | 831 | 774 | 21
O=C(CCNCc1ccc(OC(F)(F)F)c(Cl)c1)NCCCNc1cc(-c2cn[nH]c(=O)c2)cc2[nH]ncc12 [Example 168, 3-((3-chloro-4-(trifluoromethoxy)benzyl)amino)-N-(3-((6-(6-oxo-1,6-dihydropyridazin-4-yl)-1H-indazol-4-yl)amino)propyl)propanamide] | 208 | 81.2 | 0.64
O=C(CCNCc1ccc(OC(F)(F)F)c(Cl)c1)NCCCNc1cc(-c2ccncc2Cl)cc2[nH]ncc12 [Example 169, 3-((3-chloro-4-(trifluoromethoxy)benzyl)amino)-N-(3-((6-(3-chloropyridin-4-yl)-1H-indazol-4-yl)amino)propyl)propanamide] | 6510 | 5680 | 79.2
O=C(CCNCc1ccc(OC(F)(F)F)c(Cl)c1)NCCCNc1cc(-c2cc[nH]c(=O)n2)cc2[nH]ncc12 [Example 170, 3-((3-chloro-4-(trifluoromethoxy)benzyl)amino)-N-(3-((6-(2-oxo-1,2-dihydropyrimidin-4-yl)-1H-indazol-4-yl)amino)propyl)propanamide] | > 50000 | 6390 | 6.64
Fc1cc(CNCCCCOCCNCc2cc(-n3cnnc3)cc3[nH]ncc23)cc(F)c1OC(F)(F)F [Example 171, 4-(2-(((6-(4H-1,2,4-triazol-4-yl)-1H-indazol-4-yl)methyl)amino)ethoxy)-N-(3,5-difluoro-4-(trifluoromethoxy)benzyl)butan-1-amine] | 4900 | 23300 | 45.3
O=C(CCNCc1ccc(OC(F)(F)F)c(Cl)c1)NCCCNCc1cc(-n2cnnc2)cc2[nH]ncc12 [Example 172, N-(3-(((6-(4H-1,2,4-triazol-4-yl)-1H-indazol-4-yl)methyl)amino)propyl)-3-((3-chloro-4-(trifluoromethoxy)benzyl)amino)propanamide] | > 50000 | 44600 | 126
O=C(CCNCc1ccc(OC(F)(F)F)c(Cl)c1)NCCCNc1cc(-c2ncno2)cc2[nH]ncc12 [Example 173, N-(3-((6-(1,2,4-oxadiazol-5-yl)-1H-indazol-4-yl)amino)propyl)-3-((3-chloro-4-(trifluoromethoxy)benzyl)amino)propanamide] | 361 | 3170 | 1.17
O=C(CCNCc1ccc(OC(F)(F)F)c(Cl)c1)NCCCNc1cc(-c2nnc[nH]2)cc2[nH]ncc12 [Example 174, N-(3-((6-(4H-1,2,4-triazol-3-yl)-1H-indazol-4-yl)amino)propyl)-3-((3-chloro-4-(trifluoromethoxy)benzyl)amino)propanamide] | 4640 | 5980 | 7.41
O=C(CCNCc1ccc(OC(F)(F)F)c(Cl)c1)NCCCNc1cc(-c2cocn2)cc2[nH]ncc12 [Example 175, 3-((3-chloro-4-(trifluoromethoxy)benzyl)amino)-N-(3-((6-(oxazol-4-yl)-1H-indazol-4-yl)amino)propyl)propanamide] | 1240 | 1910 | 10.7
Fc1cc(CNCCCCOCCNc2cc(-c3ccncc3)c(F)c3[nH]ncc23)cc(F)c1OC(F)(F)F [Example 176, N-(2-(4-((3,5-difluoro-4-(trifluoromethoxy)benzyl)amino)butoxy)ethyl)-7-fluoro-6-(pyridin-4-yl)-1H-indazol-4-amine] | 217 | 332 | 5.99
N#Cc1nncn1-c1cc(NCCCNC(=O)CCNCc2ccc(OC(F)(F)F)c(Cl)c2)c2cn[nH]c2c1 [Example 177, 3-((3-chloro-4-(trifluoromethoxy)benzyl)amino)-N-(3-((6-(3-cyano-4H-1,2,4-triazol-4-yl)-1H-indazol-4-yl)amino)propyl)propanamide] | 11700 | 1250 | 56.2
Cc1c(-c2ccncc2)cc(NCCCNC(=O)CCNCc2ccc(OC(F)(F)F)c(Cl)c2)c2cn[nH]c12 [Example 178, 3-((3-chloro-4-(trifluoromethoxy)benzyl)amino)-N-(3-((7-methyl-6-(pyridin-4-yl)-1H-indazol-4-yl)amino)propyl)propanamide] | 2540 | 1500 | 23.9
Cc1c(-c2ccncc2)cc(NCCOCCCCNCc2cc(F)c(OC(F)(F)F)c(F)c2)c2cn[nH]c12 [Example 179, N-(2-(4-((3,5-difluoro-4-(trifluoromethoxy)benzyl)amino)butoxy)ethyl)-7-methyl-6-(pyridin-4-yl)-1H-indazol-4-amine] | 1450 | 1930 | 42.7
O=C(CCNCc1ccc(OC(F)(F)F)c(Cl)c1)NCCCNc1cc(-c2ccncc2)c(F)c2[nH]ncc12 [Example 180, 3-((3-chloro-4-(trifluoromethoxy)benzyl)amino)-N-(3-((7-fluoro-6-(pyridin-4-yl)-1H-indazol-4-yl)amino)propyl)propanamide] | 100 | 190 | 3.68
O=C(CCNCc1ccc(OC(F)(F)F)c(Cl)c1)NCCCNc1cc(-n2cnnc2)c(Cl)c2[nH]ncc12 [Example 181, 3-((3-chloro-4-(trifluoromethoxy)benzyl)amino)-N-(3-((7-chloro-6-(4H-1,2,4-triazol-4-yl)-1H-indazol-4-yl)amino)propyl)propanamide] | 11400 | 448 | 17
Fc1cc(CNCCCCOCCNc2cc(-n3cnnc3)c(Cl)c3[nH]ncc23)cc(F)c1OC(F)(F)F [Example 182, 7-chloro-N-(2-(4-((3,5-difluoro-4-(trifluoromethoxy)benzyl)amino)butoxy)ethyl)-6-(4H-1,2,4-triazol-4-yl)-1H-indazol-4-amine] | 5410 | 1820 | 29.6
O=C(CCNCc1ccc(OC(F)(F)F)c(Cl)c1)NCCCNc1cc(-c2ncns2)cc2[nH]ncc12 [Example 183, N-(3-((6-(1,2,4-thiadiazol-5-yl)-1H-indazol-4-yl)amino)propyl)-3-((3-chloro-4-(trifluoromethoxy)benzyl)amino)propanamide] | 145 | 907 | 2.39
Nc1cc(-c2cc(NCCCNC(=O)CCNCc3ccc(OC(F)(F)F)c(Cl)c3)c3cn[nH]c3c2)ccn1 [Example 184, N-(3-((6-(2-aminopyridin-4-yl)-1H-indazol-4-yl)amino)propyl)-3-((3-chloro-4-(trifluoromethoxy)benzyl)amino)propanamide] | 177 | 17 | 0.94
O=C(CCNCc1ccc(OC(F)(F)F)c(Cl)c1)NCCCNc1cc(-c2ccncc2)nc2[nH]ncc12 [Example 185, 3-((3-chloro-4-(trifluoromethoxy)benzyl)amino)-N-(3-((6-(pyridin-4-yl)-1H-pyrazolo[3,4-b]pyridin-4-yl)amino)propyl)propanamide] | 106 | 787 | 0.76
Fc1cc(CNCCCCOCCNc2c(Cl)c(-n3cnnc3)cc3[nH]ncc23)cc(F)c1OC(F)(F)F [Example 186, 5-chloro-N-(2-(4-((3,5-difluoro-4-(trifluoromethoxy)benzyl)amino)butoxy)ethyl)-6-(4H-1,2,4-triazol-4-yl)-1H-indazol-4-amine] | > 48900 | 4750 | 717
